Data taken from patent US5750536A, “Tropyl 7-azaindol-3-ylcarboxyamides as antitussive agent” (priority 1993, dated 1998).
Entries after “also recorded” stand apart in the source; their conditions may differ. Where two headings read alike, the source gives them in different places.

What was measured:
[1] = test system: cough induced by capsaicine; assay: Antitussive effect, capsaicine aqueous solution as irritant (Table V); format: in vivo, mice; conditions: os; for short coughs average n° ± s.e. / short coughs inhib. %: single dose 100 mg/kg, mice
Description: Further compound A (N-endo-8-methyl-8-azabicyclo [3,2,1] oct-3-yl)-7-azaindolyl-3-carboxamide has been tested for its antitussive effect in comparison to the closest compound belonging to the class of compounds of Japanese Kokai Tokkyo Koho JP 04 21 681, i.e., 8-methyl-8-azabicyclo [3,2,1] oct-3-yl)-1-methyl-7-azaindolyl-3-carboxamide. The compounds were administered by os at a single dose of 100 mg/kg on mice using as irritant agent capsaicine aqueous solution according to the previous mentioned technique.
Further compound A (N-endo-8-methyl-8-azabicyclo .vertline.3,2,1.vertline. oct-3-yl)-7-azaindolyl-3-carboxamide has been tested for its antitussiv effect in comparison to the closest compound belonging to the class of compounds of Jpn. Kokai Tokkyo Koho JP 04 21 681, i.e. 8-methyl-8-azabicliclo .vertline.3,2,1.vertline. oct-3-yl)-1-methyl-7-azaindolyl-3-carboxamide. The compounds were administered by os at a single dose of 100 mg/kg on mice using as irritant agent capsaicine aqueous solution according to the previous mentioned technique.

[2] = test system: sleeping time induced by barbiturates; assay: Increase of sleeping time induced by barbiturates; format: in vivo, mice; conditions: for sleeping time increase: mice, barbiturate-induced sleep
From the text: For each of the compounds under examination it has been also tested the effect on the increase of the sleeping time induced by barbiturates. […]

5-HT3 = molecular target: T1, 5-HT3 (Homo sapiens, UniProt P46098); assay: Binding test 5-HT3
T1 sequence (P46098 24-478): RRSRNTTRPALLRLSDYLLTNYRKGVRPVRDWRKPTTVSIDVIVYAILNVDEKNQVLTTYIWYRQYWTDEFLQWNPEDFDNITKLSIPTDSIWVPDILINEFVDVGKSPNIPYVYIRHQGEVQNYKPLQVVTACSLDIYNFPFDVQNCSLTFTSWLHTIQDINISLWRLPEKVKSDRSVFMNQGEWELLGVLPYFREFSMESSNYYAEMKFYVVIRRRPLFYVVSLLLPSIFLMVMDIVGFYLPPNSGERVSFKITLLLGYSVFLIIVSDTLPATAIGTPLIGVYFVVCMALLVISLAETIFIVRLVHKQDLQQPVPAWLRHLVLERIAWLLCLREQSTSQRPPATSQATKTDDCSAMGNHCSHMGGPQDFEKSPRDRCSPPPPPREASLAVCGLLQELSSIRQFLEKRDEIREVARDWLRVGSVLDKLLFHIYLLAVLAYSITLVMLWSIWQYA

α1 = assay: Displacement of selective ligand from α1 receptor; format: binding; conditions: 10^-5 M; 10 µM
From the text: (§1) The interaction of Compounds A and B with other receptors (α1, α2, benzodiazepine (o bzd), GABA A, δ) in comparison to the typical 5-HT3 antagonist Ondastron and BRL 24682 has been studied and for each case the displacement % of the single selective ligand from the corresponding receptor at concentration 10^-5 M of the compounds under examination, has been evaluated.

σ = assay: Displacement of selective ligand from σ receptor (δ in text); format: binding; conditions: 10^-5 M; 10 µM
5-HT2 = assay: Binding test 5-HT2; conditions: at 3.6 10^-5 M
[3] = test system: coughing stimulus by capsaicin; assay: Inhibition of cough induced by inhalation of capsaicin; format: in vivo, guinea pigs; conditions: for % inhibition of the coughing stimulus by capsaicin: guinea pigs, single dose 100 mg/kg; for ED50: Cavia porcellus, po, read-out: ID50 coughing stimulus capsaicin
Description: (§2) Besides these differences "in vitro" on the receptor behaviour great differences has been evidenced "in vivo" in the tussive stimulus inhibition provoked by inhalation of irritant citric acid as well as capsaicine aqueous solutions.
(§3) The compounds have been tested in guinea pigs in comparison to codeine, used as standard compound, at the single dose of 100 mg/kg according to the technique of Charlier et al., (Arch. Int. Pharmacodyn., 134, 306, 1961) which has been slightly modified.
(§4) The percent reduction evaluated in the number of short coughs after administration of the compound under examination taken in comparison to the number of short coughs observed in each of the animals to which the compound was administered, have been noted.
(§5) For these compounds as well as for the most interesting reference compounds the dose inhibiting 50% of the short coughs (ID50) induced either by citric acid or capsaicine has been determined.

GABA A = assay: Displacement of selective ligand from GABA A receptor; format: binding; conditions: for Dispacement percentage Gaba A: 10^-5 M, 10 µM
[4] = test system: coughing stimulus by ac. citric; assay: Inhibition of cough induced by inhalation of citric acid; format: in vivo, guinea pigs; conditions: for % inhibition of the coughing stimulus by ac. citric: guinea pigs, single dose 100 mg/kg; for ED50: Cavia porcellus, po, read-out: ID50 coughing stimulus ac. citric
Description: as §2, §3, §4, §5

5-HT1 = assay: Binding test 5-HT1; conditions: at 3.6 10^-5 M
From the text: Compounds A and Compounds B of the present invention, which are examples of endo-tropyl and quinuclidylamide of 7-azaindolyl-3-carboxylic acid respectively have been studied "in vitro" for their interaction with the 5-HT1, 5-HT2 and 5-HT3 receptors.
Binding Test: 5-HT1 5-HT2
% of inhibition at 3.6 10^-5 M

[5] = test system: extra vasation by capsaicine; assay: Protection from capsaicine extravasation (Evans bleu); format: in vivo
From the text: It is assumed that Capsaicine releases substance P from the peripheral nerve endings of the sensitive fibers C and determines the necrosis of the same. It is known that capsaicine administration provokes the formation of an exudate (extra vasation by capsaicine) which can be evaluated by concomitant Evans bleu administration.

Acute oral toxicity = conditions: mouse, in vivo, mice
Description: The compounds of the invention may be administered by oral, sublingual, endovenous, subcutaneous, intramuscular, rectal route and by inhalation. The preferred doses vary from about 0.05 to about 15 mg/kg/die, depending on the conditions, weight, age of the patient and on the administration route. Higher dosages of the compounds of the invention, even for a prolonged period of time, have no contraindication because of their very low toxicity.

α2 = assay: Displacement of selective ligand from α2 receptor; format: binding; conditions: 10^-5 M; 10 µM
From the text: as §1

[6] = test system: coughing stimulus by 2N H2 SO4; assay: Inhibition of cough induced by 2N H2SO4; format: in vivo, guinea pigs; conditions: Cavia porcellus, po, read-out: ID50 coughing stimulus 2N H2 SO4
[7] = test system: coughing stimulus by capsaicin; assay: Inhibition of cough induced by inhalation of capsaicin; format: in vivo; conditions: guinea pigs
[8] = test system: benzodiazepine (bdz) receptor; assay: Displacement of selective ligand from benzodiazepine receptor; format: binding
From the text: as §1

For CN1C2CCC1CC(NC(=O)c1cn(C)c3ncccc13)C2 (stereo not shown) [8-methyl-8-azabicyclo [3,2,1] oct-3-yl)-1-methyl-7-azaindolyl-3-carboxamide, reference compound], the “short coughs average n° ± s.e.” value [1] was 6.5 ± 0.7 and the “short coughs inhib. %” value [1] was 6%.
For O=C(NC1CN2CCC1CC2)c1c[nH]c2ncccc12 (stereo not shown) [Compound B, N-(1-azabicyclo[2.2.2]oct-3-yl)-7-azaindolyl-3-carboxamide], the sleeping time increase ([2]; oral, single dose 100 mg/kg) was -7, the IC50 (5-HT3) was 0.3 µM and the “Dispacement percentage α1” value (α1) was 7%. For the same molecule, the “Dispacement percentage σ” value (σ) was 26%, the “% of inhibition 5-HT2” value (5-HT2) was 3.9% and the “% inhibition of the coughing stimulus by capsaicin” value (“% inhibition … by capsaicin” for short) [3] was 21.0%. For the same molecule, the “interaction towards GABA A receptor (in words)” value (GABA A) was “definitely weak or absent”, the “Dispacement percentage Gaba A” value (GABA A) was 6.7% and the “% inhibition of the coughing stimulus by ac. citric” value (from here on “% inhibition … by ac. citric”) [4] was 46.0%. For the same molecule, the “% of inhibition 5-HT1” value (5-HT1) was 37.0%.
With CN1[C@@H]2CC[C@H]1C[C@@H](NC(=O)c1c[nH]c3ncccc13)C2 [Compound A, N-(endo-8-methyl-8-azabicyclo[3.2.1]oct-3-yl)-7-azaindolyl-3-carboxamide] the “antitussive effect, Table V (in words)” value ([1]; 100 mg/kg) was “effective as an antitussive compound; also recorded: effectiveness of compound A as antitussive compound”, the “short coughs average n° ± s.e.” value [1] was 1.8 ± 0.5 and the “short coughs inhib. %” value [1] was 75%. For the same molecule, the sleeping time increase ([2]; oral, single dose 100 mg/kg) was -28.9, the “increase of the sleeping time induced by barbiturates (in words)” value ([2]; mouse, in vivo) was “does not show any increase of the sleeping time induced by barbiturates” and the IC50 (5-HT3) was 3 µM. The “interaction with 5-HT3 receptors (in words)” value (5-HT3) was “very weak interaction with 5-HT3 receptors”, the “interaction with 5-HT3 receptors relative to Compound B (in words)” value (5-HT3; vs Compound B) was “logarithmically lower than that of Compound B” and the “interaction with 5-HT3 receptors relative to Ondasetron (times lower)” value (5-HT3; vs Ondasetron) was 1,000 times. For the same molecule, the “Dispacement percentage α1” value (α1) was 13%, the “Dispacement percentage σ” value (σ) was 70% and the “% of inhibition 5-HT2” value (5-HT2) was 8.6%. The “protection from capsaicine extravasation” value ([5]; 10 mg/kg intraperitoneal, vs non-treated animals) was 42%, the ED50 [3] was 51 mg/kg and the “antitussive effect, capsaicin (in words)” value ([3]; guinea pig, in vivo) was “depends on the dose administered; also recorded: at least equiactive as codeine”. The “% inhibition … by capsaicin” value [3] was 76.30%, the “interaction towards GABA A receptor (in words)” value (GABA A) was “unusual ability of a double interaction, apparently selective, towards GABA A and δ receptors” and the “Dispacement percentage Gaba A” value (GABA A) was 83%. For the same molecule, the ED50 [4] was 57 mg/kg, the “antitussive effect, citric acid (in words)” value ([4]; guinea pig, in vivo) was “depends on the dose administered; also recorded: at least equiactive as codeine” and the “% inhibition … by ac. citric” value [4] was 61.7%. The “% of inhibition 5-HT1” value (5-HT1) was 0.0% and the LD50 (Acute oral toxicity) was 1000 mg/kg.
With Cc1nccn1CC1CCc2c(c3ccccc3n2C)C1=O (racemic) [Ondasetron, reference compound] the sleeping time increase ([2]; at the dose of 10 mg/kg) was -8, the “Dispacement percentage α1” value (α1) was 72% and the “Dispacement percentage σ” value (σ) was 45%. The “Dispacement percentage α2” value (α2) was 30%, the “protection from capsaicine extravasation (in words)” value ([5]; 10 mg/kg i.p.) was “Solely Compound A and not Ondasetron has been found to give a 42% protection” and the ED50 ([3]; os, 95% confidence) was 97 mg/kg. For the same molecule, the “% inhibition … by capsaicin” value [3] was 50.5%, the “interaction towards GABA A receptor (in words)” value (GABA A) was “aspecific” and the “Dispacement percentage Gaba A” value (GABA A) was 38%. For the same molecule, the ED50 ([4]; os, 95% confidence) was 209 mg/kg, the “% inhibition … by ac. citric” value [4] was 30.5% and the “% of inhibition 5-HT1” value (5-HT1) was 7.6%.
For COc1ccc2c3c1O[C@H]1[C@@H](O)C=C[C@H]4[C@@H](C2)N(C)CC[C@@]341 [Codeine, reference compound], the sleeping time increase ([2]; oral, single dose 100 mg/kg) was “+106.4”, the ED50 [6] was 102 mg/kg and the ED50 [3] was 74 mg/kg. For the same molecule, the “% inhibition … by capsaicin” value [3] was 58.4%, the ED50 [4] was 65 mg/kg and the “% inhibition … by ac. citric” value [4] was 63.2%.
Molecule OC[C@@H](O)CN1CCN(c2ccccc2)CC1 [Levodropropyzina] has an ED50 ([6]; os, 95% confidence) of 265 mg/kg, an ED50 ([3]; os, 95% confidence) of 145 mg/kg and an ED50 ([4]; os, 95% confidence) of 151 mg/kg.
For COc1ccccc1CN[C@H]1C2CCN(CC2)[C@H]1C(c1ccccc1)c1ccccc1 (relative stereo) [CP 96 345], the “short cough inhibition, capsaicin” value ([7]; 10 mg/kg intraperitoneal) was 26% and the “short cough inhibition, capsaicin” value ([7]; 40 mg/kg intraperitoneal) was 42%.
With COc1cc(N)c(Cl)cc1C(=O)N[C@H]1C[C@H]2CC[C@@H](C1)N2C [BRL 24682, N-(endo-8-methyl-8-azabicyclo-[3.2.1]oct-3-yl)-2-methoxy-4-amino-5-chlorobenzamide, reference compound] the sleeping time increase ([2]; oral, single dose 100 mg/kg) was “+34.8”, the “Dispacement percentage α1” value (α1) was 28% and the “Dispacement percentage σ” value (σ) was 0%. For the same molecule, the “Dispacement percentage α2” value (α2) was 16%, the “interaction towards GABA A receptor (in words)” value (GABA A) was “high interaction with the benzodiazepine and GABA A receptors” and the “Dispacement percentage Gaba A” value (GABA A) was 89%. For the same molecule, the “% inhibition … by ac. citric” value [4] was 44.1%, the “interaction with benzodiazepine receptor (in words)” value [8] was “high interaction with the benzodiazepine and GABA A receptors” and the Dispacement percentage bdz ([8]; 10^-5 M, 10 µM) was 98%.
